Results published in PubChem BioAssay AID1963836 (Molecular Pharmacology Branch, DTP, NCI, 2024).

System: 857933-349-R-J2-PDC complex spheroid viability
Test: Anticancer human tumor 857933-349-R-J2-PDC patient-derived colon adenocarcinoma cell line growth inhibition [POLQ]
Details: for IC50: curve of first compound; for viability, T/C: stronger effect = lower value
Outline: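 Complex spheroid viability model combining PDC tumour cells with endothelial (HUVEC) and MSC stromal cells. Novobiocin, ART-558 or RP6685 were tested singly and in combination with standard and investigational anticancer drugs. Each was titrated in half-log steps from near clinical Cmax, or from 10 microM where Cmax was unknown.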

[1] = second compound 0.0316 µM, first compound 0.0316 µM
[2] = second compound 0.0316 µM, first compound 0.1 µM
[3] = second compound 0.0316 µM, first compound 0.316 µM
[4] = second compound 0.0316 µM, first compound 1 µM
[5] = second compound 0.0316 µM, first compound 3.16 µM
[6] = second compound 0.0316 µM, first compound 10 µM
[7] = second compound 0.1 µM, first compound 0.0316 µM
[8] = second compound 0.1 µM, first compound 0.1 µM
[9] = second compound 0.1 µM, first compound 0.316 µM
[10] = second compound 0.1 µM, first compound 1 µM
[11] = second compound 0.1 µM, first compound 3.16 µM
[12] = second compound 0.1 µM, first compound 10 µM
[13] = second compound 0.316 µM, first compound 0.0316 µM
[14] = second compound 0.316 µM, first compound 0.1 µM
[15] = second compound 0.316 µM, first compound 0.316 µM
[16] = second compound 0.316 µM, first compound 1 µM
[17] = second compound 0.316 µM, first compound 3.16 µM
[18] = second compound 0.316 µM, first compound 10 µM
[19] = second compound 1 µM, first compound 0.0316 µM
[20] = second compound 1 µM, first compound 0.1 µM
[21] = second compound 1 µM, first compound 0.316 µM
[22] = second compound 1 µM, first compound 1 µM
[23] = second compound 1 µM, first compound 3.16 µM
[24] = second compound 1 µM, first compound 10 µM
[25] = second compound 3.16 µM, first compound 0.0316 µM
[26] = second compound 3.16 µM, first compound 0.1 µM
[27] = second compound 3.16 µM, first compound 0.316 µM
[28] = second compound 3.16 µM, first compound 1 µM
[29] = second compound 3.16 µM, first compound 3.16 µM
[30] = second compound 3.16 µM, first compound 10 µM
[31] = second compound 10 µM, first compound 0.0316 µM
[32] = second compound 10 µM, first compound 0.1 µM
[33] = second compound 10 µM, first compound 0.316 µM
[34] = second compound 10 µM, first compound 1 µM
[35] = second compound 10 µM, first compound 3.16 µM
[36] = second compound 10 µM, first compound 10 µM
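Note: spheroids exposed to compounds for seven days before readout.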

## CC1COCCN1c1cc(C2(O)CC3CCC(C2)O3)c2cnn(-c3ccn[nH]3)c2n1 (stereo unspecified) + COC1C(OC(N)=O)C(O)C(Oc2ccc3c(O)c(NC(=O)c4ccc(O)c(CC=C(C)C)c4)c(=O)oc3c2C)OC1(C)C
Second compound 0.0316 µM
  IC50: 249 nM
Second compound 0.1 µM
  IC50: 279 nM
Second compound 0.316 µM
  IC50: 334 nM
Second compound 1 µM
  IC50: 285 nM
Second compound 3.16 µM
  IC50: 171 nM
Second compound 10 µM
  IC50: 339 nM
[1]
  viability, T/C: 76.3%
[2]
  viability, T/C: 61.5%
[3]
  viability, T/C: 48.2%
[4]
  viability, T/C: 39%
[5]
  viability, T/C: 40.7%
[6]
  viability, T/C: 49.7%
[7]
  viability, T/C: 111%
[8]
  viability, T/C: 57.7%
[9]
  viability, T/C: 59.4%
[10]
  viability, T/C: 37.7%
[11]
  viability, T/C: 40.2%
[12]
  viability, T/C: 47%
[13]
  viability, T/C: 63.3%
[14]
  viability, T/C: 68.1%
[15]
  viability, T/C: 50.3%
[16]
  viability, T/C: 41%
[17]
  viability, T/C: 43.1%
[18]
  viability, T/C: 46.7%
[19]
  viability, T/C: 94.3%
[20]
  viability, T/C: 58.1%
[21]
  viability, T/C: 50.4%
[22]
  viability, T/C: 41.2%
[23]
  viability, T/C: 49.9%
[24]
  viability, T/C: 51.4%
[25]
  viability, T/C: 75.2%
[26]
  viability, T/C: 54.5%
[27]
  viability, T/C: 45.5%
[28]
  viability, T/C: 38.1%
[29]
  viability, T/C: 43.3%
[30]
  viability, T/C: 50%
[31]
  viability, T/C: 71.5%
[32]
  viability, T/C: 63.6%
[33]
  viability, T/C: 52.8%
[34]
  viability, T/C: 36.7%
[35]
  viability, T/C: 45.6%
[36]
  viability, T/C: 47.9%

## Nc1ccn(C2OC(CO)C(O)C2(F)F)c(=O)n1 (stereo unspecified) + Cc1cccc(N(C)C(=O)C2C(O)CCN2c2nc(C)cc(C(F)(F)F)c2C#N)c1
Second compound 0.0316 µM
  IC50: 169 nM
Second compound 0.1 µM
  IC50: 175 nM
Second compound 0.316 µM
  IC50: 117 nM
Second compound 1 µM
  IC50: 141 nM
Second compound 3.16 µM
  IC50: 146 nM
Second compound 10 µM
  IC50: 126 nM
[1]
  viability, T/C: 81.5%
[2]
  viability, T/C: 62.4%
[3]
  viability, T/C: 35.5%
[4]
  viability, T/C: 15.5%
[5]
  viability, T/C: 13.2%
[6]
  viability, T/C: 11.9%
[7]
  viability, T/C: 82.9%
[8]
  viability, T/C: 68.2%
[9]
  viability, T/C: 30.5%
[10]
  viability, T/C: 15.2%
[11]
  viability, T/C: 12.4%
[12]
  viability, T/C: 7.96%
[13]
  viability, T/C: 73.8%
[14]
  viability, T/C: 54%
[15]
  viability, T/C: 26.5%
[16]
  viability, T/C: 15.5%
[17]
  viability, T/C: 13.2%
[18]
  viability, T/C: 10.8%
[19]
  viability, T/C: 78.3%
[20]
  viability, T/C: 61.4%
[21]
  viability, T/C: 23.1%
[22]
  viability, T/C: 18.2%
[23]
  viability, T/C: 12.1%
[24]
  viability, T/C: 10%
[25]
  viability, T/C: 65.2%
[26]
  viability, T/C: 60%
[27]
  viability, T/C: 30.7%
[28]
  viability, T/C: 15.7%
[29]
  viability, T/C: 10.1%
[30]
  viability, T/C: 10.3%
[31]
  viability, T/C: 80.6%
[32]
  viability, T/C: 53.7%
[33]
  viability, T/C: 33.6%
[34]
  viability, T/C: 17.4%
[35]
  viability, T/C: 12.2%
[36]
  viability, T/C: 11.4%

## CC1COCCN1c1cc(C2(S(C)(=N)=O)CC2)nc(-c2ccnc3[nH]ccc23)n1 (stereo unspecified) + COC1C(OC(N)=O)C(O)C(Oc2ccc3c(O)c(NC(=O)c4ccc(O)c(CC=C(C)C)c4)c(=O)oc3c2C)OC1(C)C
Second compound 0.0316 µM
  IC50: 4830 nM
Second compound 0.1 µM
  IC50: 4540 nM
Second compound 0.316 µM
  IC50: 4010 nM
Second compound 1 µM
  IC50: 4460 nM
Second compound 3.16 µM
  IC50: 4770 nM
Second compound 10 µM
  IC50: 4930 nM
[1]
  viability, T/C: 105%
[2]
  viability, T/C: 107%
[3]
  viability, T/C: 80.2%
[4]
  viability, T/C: 77.6%
[5]
  viability, T/C: 70.1%
[6]
  viability, T/C: 27.7%
[7]
  viability, T/C: 85.6%
[8]
  viability, T/C: 84.5%
[9]
  viability, T/C: 73.7%
[10]
  viability, T/C: 73.3%
[11]
  viability, T/C: 57.2%
[12]
  viability, T/C: 34.2%
[13]
  viability, T/C: 84.9%
[14]
  viability, T/C: 86.1%
[15]
  viability, T/C: 74.7%
[16]
  viability, T/C: 77.8%
[17]
  viability, T/C: 53.6%
[18]
  viability, T/C: 33%
[19]
  viability, T/C: 101%
[20]
  viability, T/C: 98.7%
[21]
  viability, T/C: 79.1%
[22]
  viability, T/C: 72.1%
[23]
  viability, T/C: 55.2%
[24]
  viability, T/C: 37.9%
[25]
  viability, T/C: 94.6%
[26]
  viability, T/C: 89.5%
[27]
  viability, T/C: 97%
[28]
  viability, T/C: 86.4%
[29]
  viability, T/C: 57.2%
[30]
  viability, T/C: 37.2%
[31]
  viability, T/C: 118%
[32]
  viability, T/C: 79.4%
[33]
  viability, T/C: 85.7%
[34]
  viability, T/C: 77.2%
[35]
  viability, T/C: 55.7%
[36]
  viability, T/C: 38.6%
